Measurements taken from the supplement of paper PMC10307832.

Compound: Cc1nc(C(=O)NCC(=O)O)c(O)c2ccc(Oc3ccccc3)cc12 [FG-4592] + CC1(C)CCC(c2ccc(Cl)cc2)=C(CN2CCN(c3ccc(C(=O)NS(=O)(=O)c4ccc(N[C@H](CCN5CCOCC5)CSc5ccccc5)c(S(=O)(=O)C(F)(F)F)c4)cc3)CC2)C1 [Navitoclax] (partner 0.5 µM)
Assay: relative viability (nuclei count vs DMSO), 5 days (fraction); higher = more cells survive
Conditions: first compound 0.08 µM
Outline: (§1)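 Relative viability equals treated-well nuclei counts divided by vehicle-well nuclei counts. Counts came from 4× images of lung cancer cell lines grown in 1536-well plates for 5 days after pin-tool dosing on the day after seeding. Dosing used one drug alone or a fixed anchor-drug dose plus five library-drug doses (not always all listed) in √10 steps, and values are medians of duplicate plates.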

Row | Cell Line | relative viability
1 | NCI-H2170 | 0.708
2 | HOP-62 | 1.04
3 | LU99A | 0.869
4 | BEN | 0.0578
5 | HARA | 1.15
6 | HCC-78 | 0.904
7 | NCI-H322M | 1.3
8 | LCLC-97TM1 | 0.396
9 | NCI-H2009 | 1.2
10 | A-427 | 0.829
11 | NCI-H441 | 0.606
12 | NCI-H1734 | 0.854
13 | NCI-H460 | 1.15
14 | NCI-H2347 | 0.862
15 | SK-LU-1 | 0.72
16 | NCI-H1395 | 1.37
17 | 201T | 1.14
18 | NCI-H1915 | 0.744
19 | HCC-827 | 1.03
20 | LXF-289 | 0.956
21 | NCI-H23 | 0.832
22 | NCI-H647 | 1.16
23 | CAL-12T | 1.22
24 | NCI-H1651 | 1.13

Same assay, conditions: first compound 0.253 µM

Row | Cell Line | relative viability
25 | COR-L 105 | 0.709
26 | LOU-NH91 | 0.624
27 | ChaGo-K-1 | 1.03
28 | NCI-H2170 | 0.593
29 | NCI-H2405 | 0.437
30 | HOP-62 | 1.01
31 | LU99A | 0.709
32 | BEN | 0.0857
33 | HARA | 1.09
34 | HCC-78 | 0.766
35 | NCI-H322M | 1.21
36 | LCLC-97TM1 | 0.489
37 | NCI-H2009 | 1.18
38 | A-427 | 0.739
39 | NCI-H441 | 1.01
40 | NCI-H1734 | 0.776
41 | NCI-H460 | 1.08
42 | SK-LU-1 | 0.554
43 | NCI-H1395 | 1.01
44 | 201T | 1.19
45 | NCI-H1915 | 0.733
46 | HCC-827 | 1.01
47 | LXF-289 | 0.914
48 | NCI-H23 | 0.786
49 | NCI-H647 | 1.04
50 | CAL-12T | 1.18
51 | NCI-H1651 | 0.946

Same assay, conditions: first compound 0.8 µM

Row | Cell Line | relative viability
52 | COR-L 105 | 0.919
53 | LOU-NH91 | 0.635
54 | ChaGo-K-1 | 0.708
55 | NCI-H2170 | 0.691
56 | NCI-H2405 | 0.874
57 | HOP-62 | 1.2
58 | LU99A | 0.75
59 | BEN | 0.0654
60 | HCC-78 | 0.442
61 | NCI-H322M | 1.08
62 | LCLC-97TM1 | 0.306
63 | NCI-H2009 | 1.21
64 | A-427 | 0.802
65 | NCI-H441 | 0.573
66 | NCI-H1734 | 0.838
67 | NCI-H460 | 1.25
68 | NCI-H2347 | 0.648
69 | SK-LU-1 | 0.959
70 | 201T | 1.21
71 | NCI-H1915 | 0.838
72 | HCC-827 | 0.992
73 | LXF-289 | 1.02
74 | NCI-H23 | 0.809
75 | NCI-H647 | 1.04
76 | CAL-12T | 1.33
77 | NCI-H1651 | 1.08

Same assay, conditions: first compound 2.53 µM

Row | Cell Line | relative viability
78 | COR-L 105 | 0.595
79 | LOU-NH91 | 0.711
80 | ChaGo-K-1 | 1.15
81 | NCI-H2170 | 0.485
82 | NCI-H2405 | 0.731
83 | HOP-62 | 0.983
84 | LU99A | 0.832
85 | BEN | 0.0822
86 | HARA | 1.13
87 | HCC-78 | 0.773
88 | NCI-H322M | 1
89 | NCI-H2009 | 1.05
90 | A-427 | 1.08
91 | NCI-H441 | 0.964
92 | NCI-H1734 | 0.814
93 | NCI-H460 | 0.963
94 | NCI-H2347 | 0.804
95 | NCI-H1395 | 1.02
96 | 201T | 1.18
97 | NCI-H1915 | 0.778
98 | HCC-827 | 1.02
99 | LXF-289 | 0.936
100 | NCI-H23 | 0.744
101 | NCI-H647 | 0.961
102 | CAL-12T | 1.05
103 | NCI-H1651 | 1.18

Same assay, conditions: first compound 8 µM

Row | Cell Line | relative viability
104 | COR-L 105 | 0.74
105 | LOU-NH91 | 0.617
106 | ChaGo-K-1 | 0.54
107 | NCI-H2170 | 0.322
108 | NCI-H2405 | 0.711
109 | HOP-62 | 1.03
110 | LU99A | 0.718
111 | BEN | 0.0636
112 | HARA | 1.15
113 | HCC-78 | 0.806
114 | NCI-H322M | 1.19
115 | LCLC-97TM1 | 0.496
116 | NCI-H2009 | 1.22
117 | A-427 | 0.914
118 | NCI-H441 | 0.588
119 | NCI-H1734 | 0.787
120 | NCI-H460 | 0.979
121 | NCI-H2347 | 0.897
122 | SK-LU-1 | 0.777
123 | NCI-H1395 | 0.958
124 | 201T | 1.22
125 | NCI-H1915 | 0.786
126 | HCC-827 | 1.09
127 | LXF-289 | 0.953
128 | NCI-H23 | 0.708
129 | NCI-H647 | 1.12
130 | CAL-12T | 0.764
131 | NCI-H1651 | 0.833

Compound: Cc1nc(C(=O)NCC(=O)O)c(O)c2ccc(Oc3ccccc3)cc12 [FG-4592] + COc1cc2c(Oc3ccc(NC(=O)C4(C(=O)Nc5ccc(F)cc5)CC4)cc3F)ccnc2cc1OCCCN1CCOCC1 [Foretinib] (partner 0.25 µM)
Assay: as above
Conditions: first compound 0.08 µM
Outline: as §1

Row | Cell Line | relative viability
132 | COR-L 105 | 0.817
133 | LOU-NH91 | 0.971
134 | ChaGo-K-1 | 0.997
